Entries after “also recorded” stand apart in the source; their conditions may differ.
Legend:
JAK1 = JAK1 (Homo sapiens (Human), UniProt P23458); assay: In vitro activity test of JAK1 kinase; type: biochemical
Experimental: (§1) Recombinant human JAK1, JAK2, JAK3, TyK2 protease, main instruments and reagents were provided by Eurofins in the UK
(§2) All compounds were prepared into a 100% DMSO solution and reached 50 times the final determined concentration. The test compound was diluted by 3 times the concentration gradient, and the final concentration was 10 μM to 0.001 μM, 9 concentrations in total, and the content of DMSO in the detection reaction was 2%. The working stock solution of the compound was added to a determination hole as the first component of the reaction, and then the remaining components were added according to the detailed scheme determination below.
(§3) Mg/ATP mixture was added to start the reaction. After incubation at room temperature for 40 minutes, 0.5% phosphoric acid was added to stop the reaction.

[1] = system: DSS induced ulcerative colitis and Crohn's disease in mice; assay: In vivo pharmacodynamic study on DSS induced inflammatory bowel disease (IBD) in mice; parameters: species or system mice (C57BL/6); Colon length: unit not given here
Source text: Inflammatory bowl disease (IBD) is a kind of recurrent disease. It is difficult to cure, has a high recurrence rate, and has a poor prognosis, it has a certain correlation with the incidence of colon cancer. The development of drugs for the treatment of IBD will help alleviate the symptoms of ulcerative colitis and Crohn's disease and improve the quality of life of patients. The mouse inflammation model induced by dextran sulfate sodium (DSS) is similar to the human disease ulcerative colitis and Crohn's disease. It is a common classical model for preclinical evaluation of drug efficacy.
Preparation method of DSS: 20 g DSS was weighed, 1000 mL drinking water was added to form 2% DSS solution, and stored in a 4° C. refrigerator. It is effective within one month.
Preparation method of a solvent: Vehicle solution is an aqueous solution containing 0.5% methylcellulose and 0.5% Tween 80. Firstly, 5 g of methylcellulose was dissolved in 990 mL of pure water, then 5 g of Tween 80 was added in small amount for many times, mixed evenly and stored at room temperature.
Preparation method of compounds: the compound was weighed, an aqueous solution with a mass ratio of 0.5% methylcellulose+0.5% Tween 80 was added, and it was processed by ultrasonic until it was dissolved.
The adaptation period of the animals was 3 days. After adaptation, the animals were weighed every day. The blank group was given drinking water, and the other groups were given drinking water containing 2% DSS. The water volume was 5 mL/animal/day. The animals in the test drug group were administrated by gavage once a day. The blank group and […] group were given the same volume of vehicle, with the administration volume of 10 mL/kg. Every other day, the fecal viscosity was evaluated, feces were collected for fecal occult blood detection, and the disease activity index (DAI) score was calculated. DSS consumption was detected every day. Fresh DSS solution was replaced every two days. The dosing cycle was continuous intragastric administration for 7 days, followed by 4 days of drug withdrawal, followed by 7 days of continuous intragastric administration. Normal drinking water was changed when intragastric administration was stopped.
DAI is the sum of the scores of body weight, fecal viscosity and fecal occult blood. Among them, the semi quantitative detection method of piramine cave was adopted for detecting fecal occult blood, including adding piramine cave to the sample first, then adding hydrogen peroxide and ethanol solution, and reading and scoring the color within 2 min. Immediately generating purple blue is marked as 4+, generating the purple blue within 10 s is marked as 3+, generating purple red within 1 min is marked as 2+, and gradually generating the purple red within 1-2 min is marked as 1+, and generating no color reaction of purple orchid or purple red within the reading time is recorded as negative (−). After the experiment, the colon and spleen were taken, and the length of colon and the weight of spleen were measured. The spleen index was the ratio of spleen weight to body weight.

[2] = system: DNCB induced allergic dermatitis in mice; assay: In vivo pharmacodynamic study on DNCB induced allergic dermatitis (AD) in mice
Experimental: The animal allergic dermatitis model induced by 1-chloro-2,4-dinitrobenzene (DNCB) is basically consistent with the clinical manifestations of AD patients.
Preparation method of solvent: vehicle solution is 30% PEG-400+70% (5% HP-β-CD), pH 4-5. Firstly, 35 g HP-β-CD was dissolved in 700 mL MilliQ pure water, 300 mL PEG-400 was added and mixed well, the pH was adjusted to 4-5, and stored at room temperature.
Preparation method of compounds: the compounds were weighed and added to 30% PEG-400+ 70% (5% HP-β-CD) solution (by volume), and ultrasonically processed. After the solution was fully mixed, it is load into glass bottles and stored in a 4° C. refrigerator.
Seventy male Balb/c mice were weighed and randomly divided into 7 groups with 10 mice in each group.
The animal adaptation period was 3 days. It was adapted to shaving on the back. After 2 days, it was sensitized with the modeling solution, coated with 20 μL 0.5% DNCB solution on the right ear of the mouse, applied with 200 μL 0.5% DNCB solution on the back, once a day for 3 days. The mice were stimulated from day 4, and applied with 10 μL 1% DNCB solution on the right ear of mice, 100 μL 1% DNCB solution on the back of mice, respectively, once every 3 days.
On days 3, 9, 15, 21, and 27, the severity of specific dermatitis was evaluated by evaluating four clinical inflammatory indicators of atopic dermatitis: Erythema/bleeding, scar/dryness, edema, and infiltration/erosion. Each evaluation index has four grades: 0, none; 1. slight; 2. moderate; 3. obvious; 4. very obvious. Sum the scores represents score of the skin. […] The spleen was taken and the spleen index was calculated: spleen index=spleen weight (mg)/body weight (g).
The experimental data were expressed by means±standard error (Mean±SEM), and all data were statistically analyzed by one-way ANOVA, with P<0.05 as the statistical difference.

TYK2 = TYK2 (Homo sapiens (Human), UniProt P29597); assay: In vitro activity test of TYK2 kinase; type: biochemical
Experimental: as §1, §2, §3

JAK3 = JAK3 (Homo sapiens (Human), UniProt P52333); assay: In vitro activity test of JAK3 kinase; type: biochemical
Experimental: as §1, §2, §3

JAK2 = JAK2 (Homo sapiens (Human), UniProt O60674); assay: In vitro activity test of JAK2 kinase; settings: read-out: JAK2 (IC50)
[3] = day 2, 15 mg/kg p.o. qd, Mean±SEM
[4] = day 4, 15 mg/kg p.o. qd, Mean±SEM
[5] = day 6, 15 mg/kg p.o. qd, Mean±SEM
[6] = day 8, 15 mg/kg p.o. qd, Mean±SEM
[7] = day 12, 15 mg/kg p.o. qd, Mean±SEM
[8] = day 14, 15 mg/kg p.o. qd, Mean±SEM
[9] = day 16, 15 mg/kg p.o. qd, Mean±SEM
[10] = day 18, 15 mg/kg p.o. qd, Mean±SEM
[11] = after the experiment, 30 mg/kg p.o. qd, 28 days, Mean±SEM

TYK2, sequence (P29597 whole entry): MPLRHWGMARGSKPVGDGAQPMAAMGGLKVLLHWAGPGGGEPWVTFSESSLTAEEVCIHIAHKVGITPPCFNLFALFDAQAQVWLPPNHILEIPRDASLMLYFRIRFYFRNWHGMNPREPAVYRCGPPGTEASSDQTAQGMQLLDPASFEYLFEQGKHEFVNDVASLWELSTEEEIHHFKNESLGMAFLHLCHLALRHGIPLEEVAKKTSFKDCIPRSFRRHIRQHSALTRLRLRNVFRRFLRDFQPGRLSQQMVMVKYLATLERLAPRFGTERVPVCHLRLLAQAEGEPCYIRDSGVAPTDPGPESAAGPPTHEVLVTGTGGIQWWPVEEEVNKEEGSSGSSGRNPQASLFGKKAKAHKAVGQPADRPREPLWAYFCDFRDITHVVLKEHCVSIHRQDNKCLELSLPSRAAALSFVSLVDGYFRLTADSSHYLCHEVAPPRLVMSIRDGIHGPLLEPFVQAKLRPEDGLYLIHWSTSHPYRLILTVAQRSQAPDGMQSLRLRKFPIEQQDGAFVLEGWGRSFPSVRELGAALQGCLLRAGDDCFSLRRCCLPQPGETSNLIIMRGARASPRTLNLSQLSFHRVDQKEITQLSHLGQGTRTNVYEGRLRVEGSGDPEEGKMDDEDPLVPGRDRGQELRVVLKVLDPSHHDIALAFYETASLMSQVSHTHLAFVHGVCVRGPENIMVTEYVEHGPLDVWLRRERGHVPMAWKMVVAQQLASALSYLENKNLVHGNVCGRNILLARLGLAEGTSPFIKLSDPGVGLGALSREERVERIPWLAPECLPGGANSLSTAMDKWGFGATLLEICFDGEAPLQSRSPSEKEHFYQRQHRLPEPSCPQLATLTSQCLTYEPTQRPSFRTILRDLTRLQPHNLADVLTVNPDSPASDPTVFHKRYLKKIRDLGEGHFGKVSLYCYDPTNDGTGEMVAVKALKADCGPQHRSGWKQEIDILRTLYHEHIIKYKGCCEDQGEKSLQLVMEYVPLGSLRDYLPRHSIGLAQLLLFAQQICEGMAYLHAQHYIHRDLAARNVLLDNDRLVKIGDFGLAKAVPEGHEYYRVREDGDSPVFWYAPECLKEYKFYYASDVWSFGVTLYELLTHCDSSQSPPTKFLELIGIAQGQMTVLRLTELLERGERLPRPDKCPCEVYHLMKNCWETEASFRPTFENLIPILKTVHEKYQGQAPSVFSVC
JAK1, sequence (P23458 whole entry): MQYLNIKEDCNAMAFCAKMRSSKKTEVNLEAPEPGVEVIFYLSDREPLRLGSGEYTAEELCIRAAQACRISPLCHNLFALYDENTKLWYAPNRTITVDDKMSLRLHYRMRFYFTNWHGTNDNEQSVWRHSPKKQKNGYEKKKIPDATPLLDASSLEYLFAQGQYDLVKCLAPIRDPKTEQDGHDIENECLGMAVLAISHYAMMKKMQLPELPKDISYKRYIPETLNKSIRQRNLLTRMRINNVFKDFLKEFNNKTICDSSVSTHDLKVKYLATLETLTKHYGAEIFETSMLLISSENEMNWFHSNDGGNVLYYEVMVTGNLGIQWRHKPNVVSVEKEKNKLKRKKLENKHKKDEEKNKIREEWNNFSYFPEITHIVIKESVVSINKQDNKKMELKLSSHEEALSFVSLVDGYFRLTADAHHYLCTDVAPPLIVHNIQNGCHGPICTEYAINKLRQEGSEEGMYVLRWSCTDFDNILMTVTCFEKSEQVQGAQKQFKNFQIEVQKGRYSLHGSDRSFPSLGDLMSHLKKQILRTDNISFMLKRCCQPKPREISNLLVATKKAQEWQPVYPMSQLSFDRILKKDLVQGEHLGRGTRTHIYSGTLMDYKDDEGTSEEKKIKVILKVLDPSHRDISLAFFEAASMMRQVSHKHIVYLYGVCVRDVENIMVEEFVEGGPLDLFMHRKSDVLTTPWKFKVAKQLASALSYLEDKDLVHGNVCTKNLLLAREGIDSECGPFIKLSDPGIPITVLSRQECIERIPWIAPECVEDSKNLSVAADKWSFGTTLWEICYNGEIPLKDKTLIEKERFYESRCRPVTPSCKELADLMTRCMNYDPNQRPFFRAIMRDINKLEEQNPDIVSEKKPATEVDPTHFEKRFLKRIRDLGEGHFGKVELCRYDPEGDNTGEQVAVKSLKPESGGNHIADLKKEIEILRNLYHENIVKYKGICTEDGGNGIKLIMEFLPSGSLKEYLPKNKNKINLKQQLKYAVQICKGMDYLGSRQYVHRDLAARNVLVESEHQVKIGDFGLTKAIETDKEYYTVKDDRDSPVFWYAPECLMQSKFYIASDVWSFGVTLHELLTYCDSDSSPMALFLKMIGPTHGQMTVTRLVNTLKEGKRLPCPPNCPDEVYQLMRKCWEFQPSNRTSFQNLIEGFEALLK
JAK2, sequence (O60674 whole entry): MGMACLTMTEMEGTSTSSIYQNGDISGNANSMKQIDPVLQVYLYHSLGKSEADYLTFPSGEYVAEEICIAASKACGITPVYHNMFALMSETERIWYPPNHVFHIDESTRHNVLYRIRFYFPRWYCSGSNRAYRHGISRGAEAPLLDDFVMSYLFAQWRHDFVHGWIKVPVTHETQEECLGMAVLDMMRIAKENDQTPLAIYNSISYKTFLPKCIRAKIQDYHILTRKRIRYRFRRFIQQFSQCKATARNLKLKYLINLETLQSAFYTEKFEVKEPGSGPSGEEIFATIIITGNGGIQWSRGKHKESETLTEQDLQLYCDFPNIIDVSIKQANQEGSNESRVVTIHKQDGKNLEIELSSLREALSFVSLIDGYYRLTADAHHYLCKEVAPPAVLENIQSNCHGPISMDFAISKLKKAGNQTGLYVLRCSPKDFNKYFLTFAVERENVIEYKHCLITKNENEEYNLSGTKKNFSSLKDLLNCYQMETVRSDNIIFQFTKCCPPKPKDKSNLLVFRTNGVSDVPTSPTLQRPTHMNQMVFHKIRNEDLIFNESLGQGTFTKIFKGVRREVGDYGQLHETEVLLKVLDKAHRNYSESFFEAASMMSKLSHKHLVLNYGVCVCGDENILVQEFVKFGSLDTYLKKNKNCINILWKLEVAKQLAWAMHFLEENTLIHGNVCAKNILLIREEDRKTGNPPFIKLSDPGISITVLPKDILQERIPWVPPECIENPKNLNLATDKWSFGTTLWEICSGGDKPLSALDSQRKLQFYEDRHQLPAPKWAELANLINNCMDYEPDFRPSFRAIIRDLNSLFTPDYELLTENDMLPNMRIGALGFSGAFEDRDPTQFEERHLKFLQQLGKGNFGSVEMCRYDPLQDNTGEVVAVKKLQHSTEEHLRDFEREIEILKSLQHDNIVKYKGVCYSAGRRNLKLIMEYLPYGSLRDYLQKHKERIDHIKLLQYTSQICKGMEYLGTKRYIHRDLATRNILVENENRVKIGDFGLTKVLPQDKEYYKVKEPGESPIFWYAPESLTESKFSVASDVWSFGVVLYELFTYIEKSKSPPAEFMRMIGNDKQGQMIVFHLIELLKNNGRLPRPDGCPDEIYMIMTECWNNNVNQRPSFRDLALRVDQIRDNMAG
JAK3, sequence (P52333 whole entry): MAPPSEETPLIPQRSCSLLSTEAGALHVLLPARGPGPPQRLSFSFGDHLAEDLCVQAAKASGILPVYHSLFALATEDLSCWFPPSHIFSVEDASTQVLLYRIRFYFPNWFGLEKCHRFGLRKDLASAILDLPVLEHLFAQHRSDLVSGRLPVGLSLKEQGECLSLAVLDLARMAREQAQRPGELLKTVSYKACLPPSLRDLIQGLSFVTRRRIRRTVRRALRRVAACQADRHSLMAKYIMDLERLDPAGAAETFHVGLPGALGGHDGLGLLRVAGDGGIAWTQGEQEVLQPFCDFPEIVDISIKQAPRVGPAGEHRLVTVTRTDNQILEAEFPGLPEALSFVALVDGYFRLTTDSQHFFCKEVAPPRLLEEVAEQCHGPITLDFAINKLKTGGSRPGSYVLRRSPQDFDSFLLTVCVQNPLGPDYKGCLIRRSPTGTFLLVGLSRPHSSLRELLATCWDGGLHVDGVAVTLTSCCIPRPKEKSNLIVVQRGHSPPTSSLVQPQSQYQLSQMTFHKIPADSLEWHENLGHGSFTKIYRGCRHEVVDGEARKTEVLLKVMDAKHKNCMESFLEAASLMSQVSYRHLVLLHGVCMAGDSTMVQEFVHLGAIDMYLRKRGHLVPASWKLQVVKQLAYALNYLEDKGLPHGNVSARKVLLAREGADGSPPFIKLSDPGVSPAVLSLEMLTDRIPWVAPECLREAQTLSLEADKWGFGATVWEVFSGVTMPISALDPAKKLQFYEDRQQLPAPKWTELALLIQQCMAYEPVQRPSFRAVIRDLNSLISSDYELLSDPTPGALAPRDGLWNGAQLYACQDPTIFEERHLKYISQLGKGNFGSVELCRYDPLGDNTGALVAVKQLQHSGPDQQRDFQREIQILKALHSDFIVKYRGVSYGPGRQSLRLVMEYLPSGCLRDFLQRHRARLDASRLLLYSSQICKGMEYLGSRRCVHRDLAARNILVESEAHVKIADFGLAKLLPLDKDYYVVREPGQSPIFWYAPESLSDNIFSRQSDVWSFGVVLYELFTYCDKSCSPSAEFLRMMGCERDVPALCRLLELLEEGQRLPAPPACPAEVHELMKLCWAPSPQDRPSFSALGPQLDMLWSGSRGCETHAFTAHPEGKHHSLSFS

With `O=C(Nc1nc2cccc(C3CCC4(CC3)CN(C(=O)[C@H]3CC3(F)F)C4)n2n1)[C@@H]1CC1(F)F` [Compound 9-3] the IC50 (JAK1) was 7 nM, the “Colon shortening caused by DSS, compared with DSS group (in words)” value ([1]; 15 mg/kg p.o.) was “can reduce colon shortening” and the “Increase of spleen index induced by DSS (in words)” value ([1]; 15 mg/kg p.o.) was “could reduce the increase of spleen index”. It also gave a Colon length ([1]; after the experiment, 15 mg/kg p.o. qd, Mean±SEM) of 2.87 ± 0.11, a Weight of mice ([1]; day 1, 15 mg/kg p.o. qd, Mean±SEM) of 22.26 ± 0.29 and a DAI score [1, 3] of 0.40 ± 0.16. The Weight of mice [1, 3] was 22.48 ± 0.29, the Weight of mice ([1]; day 3, 15 mg/kg p.o. qd, Mean±SEM) was 22.39 ± 0.27 and the DAI score [1, 4] was 1.70 ± 0.54. For the same molecule, the Weight of mice [1, 4] was 22.26 ± 0.31, the Weight of mice ([1]; day 5, 15 mg/kg p.o. qd, Mean±SEM) was 22.18 ± 0.40 and the DAI score [1, 5] was 2.40 ± 0.37. The Weight of mice [1, 5] was 22.00 ± 0.43, the Weight of mice ([1]; day 7, 15 mg/kg p.o. qd, Mean±SEM) was 21.21 ± 0.53 and the DAI score [1, 6] was 4.70 ± 0.94. The Weight of mice [1, 6] was 20.72 ± 0.67, the Weight of mice ([1]; day 9, 15 mg/kg p.o. qd, Mean±SEM) was 19.89 ± 0.37 and the Weight of mice ([1]; day 10, 15 mg/kg p.o. qd, Mean±SEM) was 18.92 ± 0.47. It also gave a Weight of mice ([1]; day 11, 15 mg/kg p.o. qd, Mean±SEM) of 18.60 ± 0.62, a DAI score [1, 7] of 4.11 ± 0.53 and a Weight of mice [1, 7] of 18.50 ± 0.74. It also gave a Weight of mice ([1]; day 13, 15 mg/kg p.o. qd, Mean±SEM) of 19.42 ± 0.78, a DAI score [1, 8] of 4.88 ± 0.44 and a Weight of mice [1, 8] of 19.26 ± 0.93. For the same molecule, the Weight of mice ([1]; day 15, 15 mg/kg p.o. qd, Mean±SEM) was 19.96 ± 0.84, the DAI score [1, 9] was 3.67 ± 0.86 and the Weight of mice [1, 9] was 20.84 ± 0.46. The Weight of mice ([1]; day 17, 15 mg/kg p.o. qd, Mean±SEM) was 20.42 ± 0.50, the DAI score [1, 10] was 4.83 ± 0.68 and the Weight of mice [1, 10] was 19.78 ± 0.43. For the same molecule, the Spleen index ([1]; ratio of spleen weight to body weight, 15 mg/kg p.o. qd, Mean±SEM) was 4.98 ± 0.40, the “Effect on the weight of mice (in words)” value ([2]; 30 mg/kg p.o. qd, 28 days) was “no significant effect” and the “Effect on treating allergic dermatitis (in words)” value ([2]; 30 mg/kg p.o. qd, DNCB mice) was “good disease treatment effect; also recorded: significant effect”. For the same molecule, the “Concentration of IgE in serum after drug intervention (in words)” value ([2]; 30 mg/kg p.o., vs DNCB group) was “significantly decreased”, the “Spleen index after drug intervention (in words)” value ([2]; 30 mg/kg p.o., vs DNCB group) was “significantly decreased” and the “Thickness of the right ear after drug intervention (in words)” value ([2]; 30 mg/kg p.o., vs DNCB group) was “significantly decreased”. The “IgE concentration in serum” value [2, 11] was 6.39 ± 1.04, the “Thickness of the right ear” value [2, 11] was 0.252 ± 0.006 and the Weight of mice ([2]; day 1, 30 mg/kg p.o. qd from day 4, Mean±SEM) was 19.32 ± 0.46. It also gave a Skin score ([2]; day 3, 30 mg/kg p.o. qd from day 4, Mean±SEM) of 0.7 ± 0.5, a Weight of mice ([2]; day 4, 30 mg/kg p.o. qd, Mean±SEM) of 20.02 ± 0.41 and a Weight of mice ([2]; day 7, 30 mg/kg p.o. qd, Mean±SEM) of 19.24 ± 0.47. The Skin score ([2]; day 9, 30 mg/kg p.o. qd, Mean±SEM) was 3.4 ± 0.7, the Weight of mice ([2]; day 10, 30 mg/kg p.o. qd, Mean±SEM) was 19.41 ± 0.58 and the Weight of mice ([2]; day 13, 30 mg/kg p.o. qd, Mean±SEM) was 20.83 ± 0.42. For the same molecule, the Skin score ([2]; day 15, 30 mg/kg p.o. qd, Mean±SEM) was 4.2 ± 0.6, the Weight of mice ([2]; day 16, 30 mg/kg p.o. qd, Mean±SEM) was 21.49 ± 0.45 and the Weight of mice ([2]; day 19, 30 mg/kg p.o. qd, Mean±SEM) was 23.36 ± 0.38. For the same molecule, the Skin score ([2]; day 21, 30 mg/kg p.o. qd, Mean±SEM) was 5.4 ± 0.9, the Weight of mice ([2]; day 22, 30 mg/kg p.o. qd, Mean±SEM) was 23.67 ± 0.37 and the Weight of mice ([2]; day 25, 30 mg/kg p.o. qd, Mean±SEM) was 23.14 ± 0.42. The Skin score ([2]; day 27, 30 mg/kg p.o. qd, Mean±SEM) was 2.2 ± 0.9, the “Skin score compared with DNCB group (in words)” value ([2]; day 27 of administration, 30 mg/kg p.o.) was “significant reduction” and the Weight of mice ([2]; day 28, 30 mg/kg p.o. qd, Mean±SEM) was 24.15 ± 0.50. The Spleen index ([2]; spleen weight (mg)/body weight (g), 30 mg/kg p.o. qd, 28 days, Mean±SEM) was 4.17 ± 0.65, the IC50 (TYK2) was 105 nM and the IC50 (JAK3) was greater than 10000 nM. It also gave an IC50 (JAK2) of 292 nM.
